The subject of one experiment is KARN cells (Jurkat 2C4). Put plainly: cells. Conditions: Homo sapiens, Jurkat. The format is cell-based. Summed up:
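Jurkat 2C4 (KARN) cells dosed with test compounds up to 40 μM final, 0.4% DMSO, overnight at 5% CO2; luciferase read by Steady-Glo luminescence after 10 min at room temperature. DMSO set as 0% and 2 μM SAHA as 100% induction; 4-parameter fit of percent activation.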

Another experiment addresses T1, Recombinant human HDAC8 (Homo sapiens, UniProt Q9BY41).
T1 construct: purchased Enzo Life Sciences BML-SE145-0100
T1 sequence (Q9BY41 1-377): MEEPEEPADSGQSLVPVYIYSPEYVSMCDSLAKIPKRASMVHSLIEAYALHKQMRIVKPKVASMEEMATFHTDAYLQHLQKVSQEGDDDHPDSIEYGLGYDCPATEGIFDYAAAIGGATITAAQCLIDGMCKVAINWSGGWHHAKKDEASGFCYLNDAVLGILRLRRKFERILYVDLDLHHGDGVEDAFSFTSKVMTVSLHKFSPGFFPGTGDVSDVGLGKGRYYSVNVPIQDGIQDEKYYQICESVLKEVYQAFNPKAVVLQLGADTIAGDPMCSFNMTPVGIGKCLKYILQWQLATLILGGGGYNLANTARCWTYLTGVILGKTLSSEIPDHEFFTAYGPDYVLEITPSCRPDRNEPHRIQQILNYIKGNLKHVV
As to the kind of experiment: Human HDAC enzyme inhibitor Fluor-de-Lys assay, HDAC8. The experiment is classed as biochemical.

The target in a further experiment is T2, HDAC6 (Homo sapiens, UniProt Q9UBN7).
T2 sequence (Q9UBN7 1-1215): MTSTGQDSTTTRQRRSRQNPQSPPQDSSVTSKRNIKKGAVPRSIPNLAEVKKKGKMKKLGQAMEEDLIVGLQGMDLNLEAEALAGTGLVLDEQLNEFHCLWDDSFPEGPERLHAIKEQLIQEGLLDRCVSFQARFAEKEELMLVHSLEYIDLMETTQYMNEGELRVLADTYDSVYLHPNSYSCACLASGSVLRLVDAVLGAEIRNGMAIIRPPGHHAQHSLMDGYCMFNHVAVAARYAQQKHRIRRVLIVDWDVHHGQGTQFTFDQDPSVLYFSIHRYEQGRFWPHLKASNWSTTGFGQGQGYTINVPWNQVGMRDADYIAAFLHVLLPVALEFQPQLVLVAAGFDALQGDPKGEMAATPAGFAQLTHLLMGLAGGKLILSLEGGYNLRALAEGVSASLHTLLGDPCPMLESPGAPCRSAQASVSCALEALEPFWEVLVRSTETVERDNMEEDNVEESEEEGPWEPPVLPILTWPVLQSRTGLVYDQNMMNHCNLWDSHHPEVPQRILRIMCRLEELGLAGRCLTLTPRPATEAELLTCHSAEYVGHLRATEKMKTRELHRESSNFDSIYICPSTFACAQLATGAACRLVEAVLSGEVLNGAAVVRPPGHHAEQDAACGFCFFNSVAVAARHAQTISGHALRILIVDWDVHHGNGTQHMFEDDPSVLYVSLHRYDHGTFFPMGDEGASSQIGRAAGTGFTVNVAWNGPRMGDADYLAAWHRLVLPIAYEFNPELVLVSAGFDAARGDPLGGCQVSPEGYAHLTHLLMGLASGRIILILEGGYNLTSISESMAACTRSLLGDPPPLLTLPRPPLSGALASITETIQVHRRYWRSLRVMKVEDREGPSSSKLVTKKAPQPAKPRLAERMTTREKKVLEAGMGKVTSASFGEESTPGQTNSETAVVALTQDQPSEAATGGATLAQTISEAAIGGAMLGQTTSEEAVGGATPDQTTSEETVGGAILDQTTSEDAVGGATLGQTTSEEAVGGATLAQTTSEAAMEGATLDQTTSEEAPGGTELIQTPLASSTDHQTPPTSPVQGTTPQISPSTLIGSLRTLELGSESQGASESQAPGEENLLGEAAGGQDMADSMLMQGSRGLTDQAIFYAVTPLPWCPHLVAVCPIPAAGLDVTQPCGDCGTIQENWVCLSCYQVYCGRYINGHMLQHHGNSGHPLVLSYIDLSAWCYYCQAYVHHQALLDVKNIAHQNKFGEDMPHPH
Put plainly: Human HDAC enzyme inhibitor Fluor-de-Lys assay, HDAC6. The experiment is classed as biochemical.

Another experiment deals with T3, Recombinant human HDAC2 (Homo sapiens, UniProt Q92769).
T3 construct: Full length human HDAC2-FLAG was expressed in baculovirus infected Sf9 cells; FLAG (C); made in house; host or cells: Sf9 (baculovirus)
T3 sequence (Q92769 whole entry): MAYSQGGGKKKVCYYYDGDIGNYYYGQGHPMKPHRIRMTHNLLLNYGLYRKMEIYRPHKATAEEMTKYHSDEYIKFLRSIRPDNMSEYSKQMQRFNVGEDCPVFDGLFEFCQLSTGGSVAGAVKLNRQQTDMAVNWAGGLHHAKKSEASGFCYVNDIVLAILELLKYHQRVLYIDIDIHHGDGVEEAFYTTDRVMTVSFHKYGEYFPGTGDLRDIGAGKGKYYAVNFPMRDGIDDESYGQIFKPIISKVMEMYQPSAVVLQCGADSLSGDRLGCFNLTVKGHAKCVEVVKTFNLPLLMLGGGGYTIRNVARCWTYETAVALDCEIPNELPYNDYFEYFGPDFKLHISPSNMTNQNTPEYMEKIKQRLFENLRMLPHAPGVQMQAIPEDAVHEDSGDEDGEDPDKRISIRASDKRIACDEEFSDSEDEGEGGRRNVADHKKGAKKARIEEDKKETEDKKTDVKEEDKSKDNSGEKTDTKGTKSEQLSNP
As to the kind of experiment: Human HDAC enzyme inhibitor Fluor-de-Lys assay, HDAC2. The experiment is classed as biochemical. How it is done: (§1) Human HDAC Enzyme Inhibitor Fluor-De-Lys Assay
(§2) Recombinant human HDAC8 (BML-SE145-0100) and HDAC10 (BML-SE559-0050) enzymes, HDAC substrates BML-KI104 and BML-KI178, and HDAC developer solutions BML-KI105 and BML-KI176 were purchased from Enzo Life Sciences. […] HDAC inhibitor suberoylanilide hydroxamic acid (SAHA) was obtained from Indofine and trichostatin A (TSA) was obtained from Sigma-Aldrich.
(§3) Recombinant human HDAC1, HDAC2, and HDAC3/SMRT heterodimer were prepared by Merck Research Laboratories. […] The eluted protein was then passed over an anti-HDAC1 immunoaffinity column to remove any complexes containing HDAC1. […]
(§4) The histone deacetylase activities of HDAC1, HDAC2, HDAC3, HDAC6, and HDAC8 were measured in modified FLUOR DE LYS assays in 384-well format. In this assay, HDAC enzymes are initially incubated with an ε-acetyl (or -trifluoroacetyl)-L-lysine-containing substrate with a C-terminal amide having aminomethylcoumarin as the amine component. HDACs cleave the ε-acetyl group, rendering the resulting product susceptible to AMC cleavage by trypsin. The released AMC is then detected by its fluorescence.
(§5) The HDAC3/SMRT assay employed buffer B, consisting of 20 mM HEPES, pH 8.0, 1 mM MgCl2, 50 mM NaCl, 2.7 mM KCl, 0.05% BSA, 0.005% Tween 20, and 10 μM IP4. […] The HDAC8 assay employed buffer D, consisting of 20 mM HEPES, pH 8.0, 1 mM MgCl2, 100 mM NaCl, 20 mM KCl, 0.10% n-octyl-β-D-glucoside (Anatrace) and 0.05% BSA. All steps were performed at room temperature (23° C.). The assay was performed by pre-incubating serial dilutions of test compounds with the target HDAC prior to initiation with substrate. Each compound was titrated in a 10-point dose response, using a 1:3 fold dilution scheme, with 0.15 ul of solution added by ECH0555 to the plate, followed by the addition of 20 μl of the appropriate HDAC isoform diluted in appropriate assay buffer. […] Final conditions used for each assay were: 1. HDAC 1, 0.3 nM total enzyme, 20 μM substrate BML-KI104; 2. […] HDAC 3/SMRT, 0.3 nM total enzyme, 20 μM substrate BML-KI104; 4. […] The reactions were stopped and developed by addition of 30 ul of HDAC developer solution containing a saturating level of HDAC inhibitor as follows: 1.

The target of experiment [1] is T4, Recombinant human HDAC3/SMRT heterodimer (Homo sapiens, UniProt O15379).
T4 construct: FLAG (C); made in house
T4 sequence (O15379 whole entry): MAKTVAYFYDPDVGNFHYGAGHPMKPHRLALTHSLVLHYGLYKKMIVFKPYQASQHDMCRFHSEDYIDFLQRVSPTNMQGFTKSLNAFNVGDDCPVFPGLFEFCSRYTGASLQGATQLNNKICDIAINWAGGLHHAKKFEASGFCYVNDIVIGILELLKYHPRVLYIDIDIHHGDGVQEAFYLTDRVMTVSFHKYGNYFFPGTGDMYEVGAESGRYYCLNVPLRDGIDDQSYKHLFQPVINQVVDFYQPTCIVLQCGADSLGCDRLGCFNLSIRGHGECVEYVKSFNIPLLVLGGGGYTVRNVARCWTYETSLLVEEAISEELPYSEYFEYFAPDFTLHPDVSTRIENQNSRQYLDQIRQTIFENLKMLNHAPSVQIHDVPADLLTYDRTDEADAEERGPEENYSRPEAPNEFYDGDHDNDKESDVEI
T4 sequence (Q9Y618 1-899 partner limits assumed): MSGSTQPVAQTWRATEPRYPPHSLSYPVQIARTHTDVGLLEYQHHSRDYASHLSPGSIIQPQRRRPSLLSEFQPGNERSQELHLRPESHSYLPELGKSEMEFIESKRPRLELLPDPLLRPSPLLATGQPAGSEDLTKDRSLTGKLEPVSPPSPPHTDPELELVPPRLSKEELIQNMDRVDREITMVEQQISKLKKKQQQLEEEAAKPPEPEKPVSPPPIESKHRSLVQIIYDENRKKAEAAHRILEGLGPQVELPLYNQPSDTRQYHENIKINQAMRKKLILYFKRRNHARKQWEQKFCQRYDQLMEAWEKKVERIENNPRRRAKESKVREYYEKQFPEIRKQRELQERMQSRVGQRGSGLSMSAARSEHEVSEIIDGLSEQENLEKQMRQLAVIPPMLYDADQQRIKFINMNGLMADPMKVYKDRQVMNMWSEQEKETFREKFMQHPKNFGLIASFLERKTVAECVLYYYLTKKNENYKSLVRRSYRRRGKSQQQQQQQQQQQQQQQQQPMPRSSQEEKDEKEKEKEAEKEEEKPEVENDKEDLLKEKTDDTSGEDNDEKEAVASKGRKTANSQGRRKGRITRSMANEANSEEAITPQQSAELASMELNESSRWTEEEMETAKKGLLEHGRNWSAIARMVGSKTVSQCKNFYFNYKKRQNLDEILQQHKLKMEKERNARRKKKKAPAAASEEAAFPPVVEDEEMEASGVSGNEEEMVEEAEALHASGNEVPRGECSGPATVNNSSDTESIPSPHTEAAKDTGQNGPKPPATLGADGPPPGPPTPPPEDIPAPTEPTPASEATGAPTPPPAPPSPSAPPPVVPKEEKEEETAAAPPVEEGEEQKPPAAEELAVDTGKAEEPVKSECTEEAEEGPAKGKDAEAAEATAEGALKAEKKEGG
As to the kind of experiment: Human HDAC enzyme inhibitor Fluor-de-Lys assay, HDAC3/SMRT. Conditions: recombinant human HDAC3/SMRT, Fluor-de-Lys assay. The format is biochemical.

In another experiment the target is T5, Recombinant human HDAC1 (Homo sapiens, UniProt Q13547).
T5 construct: FLAG (C); made in house
T5 sequence (Q13547 whole entry): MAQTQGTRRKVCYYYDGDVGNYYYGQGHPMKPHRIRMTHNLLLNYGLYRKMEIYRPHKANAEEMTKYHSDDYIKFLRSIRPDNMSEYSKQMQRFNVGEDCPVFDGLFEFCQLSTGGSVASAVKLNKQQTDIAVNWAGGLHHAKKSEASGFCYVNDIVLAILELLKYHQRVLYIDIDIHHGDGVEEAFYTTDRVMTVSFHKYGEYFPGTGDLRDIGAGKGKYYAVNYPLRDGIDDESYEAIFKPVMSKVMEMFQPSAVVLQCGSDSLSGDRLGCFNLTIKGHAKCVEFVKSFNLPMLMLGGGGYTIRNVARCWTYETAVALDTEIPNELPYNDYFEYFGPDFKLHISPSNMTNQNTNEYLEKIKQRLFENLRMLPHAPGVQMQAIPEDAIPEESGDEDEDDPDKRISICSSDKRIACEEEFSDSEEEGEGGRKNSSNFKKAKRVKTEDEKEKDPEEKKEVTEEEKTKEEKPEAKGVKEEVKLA
As to the kind of experiment: Human HDAC enzyme inhibitor Fluor-de-Lys assay, HDAC1. The format is biochemical. Conditions: recombinant human HDAC1, Fluor-de-Lys assay. The method, then: as §1, §2, §3, §4, §5

Setting [2] is: read-out: Karn EC50 (nM) 0.1% NHS, 0.1% normal human serum, luciferase induction, 100% = 2 μM SAHA.
The mark [3] stands for this setting: read-out: Karn EC50 (nM) 5% NHS, 5% normal human serum, luciferase induction, 100% = 2 μM SAHA.
[4] abbreviates: recombinant human HDAC2, Fluor-de-Lys assay.
Where [5] appears, read: recombinant human HDAC8, Fluor-de-Lys assay.

The structures appear in SMILES notation. Like-named read-outs stand apart in the source and are kept apart here. Some results are limits rather than exact numbers.

For the compound `CCC(=O)CCCCC[C@H](NC(=O)[C@H]1CC12CCN(CC)CC2)c1ncc(-c2cc3cccnc3cc2OC)o1` [Compound 169], the EC50 with KARN cells (Jurkat 2C4) (read-out: Karn EC50 (nM) 0.1% NHS, 0.1% normal human serum) was 91 nM; in the experiment on KARN cells (Jurkat 2C4) (read-out: Karn EC50 (nM) 5% NHS, 5% normal human serum), 78 nM. Also, the IC50 on Recombinant human HDAC8 worked out at 7580 nM; on HDAC6, 83 nM; at Recombinant human HDAC2, 2.2 nM.

Regarding `CCC(=O)CCCCC[C@H](NC(=O)C1CC12CCN(CC)CC2)c1nc(-c2ccc(F)cc2)[nH]c1-c1cccc(OC)c1` (some centres unmarked) [Compound 246], the EC50 in the experiment with KARN cells (Jurkat 2C4) (setting [2]) came to 1940 nM; with KARN cells (Jurkat 2C4) (setting [3]), 3770 nM. The figures for the IC50 (in experiment [1]; on Recombinant human HDAC1; at Recombinant human HDAC2 (setting [4])) were 155 nM, 177 nM and 769 nM, respectively.

Consider `CCC(=O)CCCCC[C@H](NC(=O)[C@H]1CC12CCN(C)CC2)c1ncc(-c2ccn3ncnc3c2)[nH]1` [Compound 267], for which the IC50 was determined as 11600 nM on Recombinant human HDAC8 (setting [5]); 46.7 nM at Recombinant human HDAC1; 6370 nM against HDAC6 (HDAC6, Fluor-de-Lys assay); 170 nM at Recombinant human HDAC2 (setting [4]).

In the case of `CCC(=O)CCCCC[C@H](NC(=O)C1NC(=O)CC12CN(C(=O)OC(C)(C)C)C2)c1nnc(-c2cc3ccccc3nc2OC)o1` (some centres unmarked) [Compound 302], the figures for the EC50 in the experiment with KARN cells (Jurkat 2C4) (setting [2]) and in the experiment on KARN cells (Jurkat 2C4) (setting [3]) were 4460 nM and 7430 nM, respectively. The IC50 at Recombinant human HDAC8 (setting [5]) was greater than 45000 nM; in experiment [1], 37.6 nM; on Recombinant human HDAC1, 49.4 nM; at Recombinant human HDAC2 (setting [4]) it was 121 nM.

Regarding `CCC(=O)CCCCC[C@H](NC(=O)C1NC(=O)CC12CNC2)c1nnc(-c2cc3ccccc3nc2OC)o1` (some centres unmarked) [Compound 304], the EC50 in the experiment on KARN cells (Jurkat 2C4) (setting [2]) was 17300 nM. The IC50 on Recombinant human HDAC8 (setting [5]) worked out at 20800 nM; in experiment [1], 3.23 nM; at Recombinant human HDAC1, 3.59 nM; at Recombinant human HDAC2 (setting [4]) it was 8 nM.

Turning to `CCC(=O)CCCCC[C@H](NC(=O)C1NC(=O)CC12CN(C)C2)c1nnc(-c2cc3ccccc3nc2OC)o1` (some centres unmarked) [Compound 309], the EC50 in the experiment on KARN cells (Jurkat 2C4) (setting [2]) was 1350 nM; in the experiment with KARN cells (Jurkat 2C4) (setting [3]) it was 1920 nM. Moreover, the IC50 came to 24000 nM on Recombinant human HDAC8 (setting [5]), 7.19 nM in experiment [1], 6.91 nM on Recombinant human HDAC1 and 19.3 nM on Recombinant human HDAC2 (setting [4]).

As to `CCC(=O)CCCCC[C@H](NC(=O)[C@H]1CC12CCN(C)CC2)c1ncc(-c2ccc3cnc(Cl)cc3c2)[nH]1` [Compound 351], the IC50 stood at 5830 nM at Recombinant human HDAC8 (setting [5]); 1.32 nM in experiment [1]; 1.57 nM on Recombinant human HDAC1; 1470 nM against HDAC6 (HDAC6, Fluor-de-Lys assay); 7.1 nM on Recombinant human HDAC2 (setting [4]).

As for `CCC(=O)CCCCC[C@H](NC(=O)[C@H]1CC[C@]2(CC1)OC(=O)c1ncccc12)c1ncc(-c2ccccc2)[nH]1` [Compound 377], the IC50 on Recombinant human HDAC8 (setting [5]) is 3010 nM; in experiment [1], 6.9 nM; at Recombinant human HDAC1 it was 47.1 nM; against HDAC6 (HDAC6, Fluor-de-Lys assay), 8290 nM; on Recombinant human HDAC2 (setting [4]), 232 nM.

The EC50 is the concentration needed to bring the measured effect to its halfway point. Broadly, the IC50 is the midpoint of a concentration-inhibition curve.

The record behind these values is patent US12590099B2, “Inhibitors of histone deacetylase useful for the treatment or prevention of HIV infection” (Merck Sharp & Dohme LLC, priority 2018, dated 2026).
